Measurements published in the NIST ThermoML archive (doi:10.1021/je800150h).

Assay: xn = mol fraction of the nth substance listed
Settings: 101 kPa, Liquid

CCO [ethanol] + O
Settings	mass density [kg/m3]	viscosity [mPa·s]
268.1 K, x2 = 0.1	824.9	2.307
268.1 K, x2 = 0.2	838.2	2.805
268.1 K, x2 = 0.3	852.2	3.345
268.1 K, x2 = 0.4	867.7	3.991
268.1 K, x2 = 0.5	886.6	4.829
268.1 K, x2 = 0.6	908.1	5.931
268.1 K, x2 = 0.7	931.6	7.172
268.1 K, x2 = 0.8	951	7.549
268.1 K, x2 = 0.9	977.3	6.025
273.1 K, x2 = 0.1	820.3	2.059
273.1 K, x2 = 0.2	833.7	2.491
273.1 K, x2 = 0.3	847.7	2.938
273.1 K, x2 = 0.4	863.4	3.451
273.1 K, x2 = 0.5	882.1	4.123
273.1 K, x2 = 0.6	903.5	4.978
273.1 K, x2 = 0.7	927.1	5.947
273.1 K, x2 = 0.8	948	6.169
273.1 K, x2 = 0.9	975.6	4.997
278.1 K, x2 = 0.1	815.9	1.837
278.1 K, x2 = 0.2	829	2.21
278.1 K, x2 = 0.3	842.9	2.579
278.1 K, x2 = 0.4	858.8	2.98
278.1 K, x2 = 0.5	877.7	3.518
278.1 K, x2 = 0.6	899.3	4.176
278.1 K, x2 = 0.7	922.7	4.933
278.1 K, x2 = 0.8	945	5.037
278.1 K, x2 = 0.9	973.2	4.089
283.1 K, x2 = 0.1	811.4	1.639
283.1 K, x2 = 0.2	824.7	1.959
283.1 K, x2 = 0.3	838.5	2.26
283.1 K, x2 = 0.4	854.1	2.57
283.1 K, x2 = 0.5	872.8	2.995
283.1 K, x2 = 0.6	894.6	3.499
283.1 K, x2 = 0.7	918.7	4.093
283.1 K, x2 = 0.8	941.4	4.102
283.1 K, x2 = 0.9	970.8	3.34
288.15 K, x2 = 0.1	806.9	1.51
288.15 K, x2 = 0.2	820.1	1.721
288.15 K, x2 = 0.3	833.9	1.98
288.15 K, x2 = 0.4	849.5	2.212
288.15 K, x2 = 0.5	868.5	2.539
288.15 K, x2 = 0.6	889.6	2.922
288.15 K, x2 = 0.7	914.5	3.372
288.15 K, x2 = 0.8	938	3.433
288.15 K, x2 = 0.9	967.3	2.706
293.15 K, x2 = 0.1	802.1	1.355
293.15 K, x2 = 0.2	815.6	1.515
293.15 K, x2 = 0.3	829.4	1.715
293.15 K, x2 = 0.4	845	1.901
293.15 K, x2 = 0.5	863.8	2.153
293.15 K, x2 = 0.6	885.1	2.463
293.15 K, x2 = 0.7	909.9	2.842
293.15 K, x2 = 0.8	934.6	2.841
293.15 K, x2 = 0.9	963.7	2.268
298.15 K, x2 = 0.1	797.7	1.249
298.15 K, x2 = 0.2	811	1.353
298.15 K, x2 = 0.3	825.1	1.513
298.15 K, x2 = 0.4	840.6	1.651
298.15 K, x2 = 0.5	859.2	1.84
298.15 K, x2 = 0.6	880.6	2.089
298.15 K, x2 = 0.7	905.3	2.35
298.15 K, x2 = 0.8	931.3	2.45
298.15 K, x2 = 0.9	960.3	1.92
303.15 K, x2 = 0.1	793	1.156
303.15 K, x2 = 0.2	806	1.218
303.15 K, x2 = 0.3	820.6	1.356
303.15 K, x2 = 0.4	836.1	1.446
303.15 K, x2 = 0.5	854.8	1.598
303.15 K, x2 = 0.6	876.1	1.812
303.15 K, x2 = 0.7	901	2.04
303.15 K, x2 = 0.8	927.6	2.101
303.15 K, x2 = 0.9	956.2	1.656
308.15 K, x2 = 0.1	788.2	1.067
308.15 K, x2 = 0.2	801.4	1.11
308.15 K, x2 = 0.3	816	1.215
308.15 K, x2 = 0.4	831.4	1.296
308.15 K, x2 = 0.5	850.1	1.407
308.15 K, x2 = 0.6	871.4	1.582
308.15 K, x2 = 0.7	896.5	1.78
308.15 K, x2 = 0.8	923.8	1.772
308.15 K, x2 = 0.9	952.7	1.448
313.15 K, x2 = 0.1	783.6	0.92
313.15 K, x2 = 0.2	796.8	1.004
313.15 K, x2 = 0.3	811.1	1.096
313.15 K, x2 = 0.4	826.9	1.149
313.15 K, x2 = 0.5	845.2	1.27
313.15 K, x2 = 0.6	866.8	1.43
313.15 K, x2 = 0.7	892	1.56
313.15 K, x2 = 0.8	919.5	1.557
313.15 K, x2 = 0.9	949	1.271
318.15 K, x2 = 0.1	779	0.86
318.15 K, x2 = 0.2	792.2	0.925
318.15 K, x2 = 0.3	806.6	0.998
318.15 K, x2 = 0.4	822.4	1.039
318.15 K, x2 = 0.5	840.5	1.14
318.15 K, x2 = 0.6	862.1	1.27
318.15 K, x2 = 0.7	887.4	1.371
318.15 K, x2 = 0.8	915.5	1.369
318.15 K, x2 = 0.9	945.5	1.121
323.15 K, x2 = 0.1	774.3	0.76
323.15 K, x2 = 0.2	787.5	0.839
323.15 K, x2 = 0.3	801.9	0.902
323.15 K, x2 = 0.4	817.7	0.932
323.15 K, x2 = 0.5	835.8	1.02
323.15 K, x2 = 0.6	857.3	1.14
323.15 K, x2 = 0.7	883	1.17
323.15 K, x2 = 0.8	911.2	1.202
323.15 K, x2 = 0.9	942	0.975
